“Also recorded” adds a separate entry of the source.
Tested on: Japanese patients with advanced EGFR mutation-positive NSCLC
Assay: Phase I study: dose-limiting toxicities, adverse drug reactions, tolerability
Type: in vivo, human
Details: for patients who presented a DLT: Cycle 1 of dose escalation phase; for maximum tolerated dose (MTD): dose escalation phase
Procedure: This was an open-label, non-randomized, dose escalation phase I study conducted between December 14, 2015 and July 7, 2016 at 12 centers in Japan. The study was conducted in three phases (dose escalation phase, expansion phase, and extension phase), and the design is shown in Supplementary Fig. 1 (Online Resource 1). […] In patients who received the BID regimen, the administration interval was ≥10 h.
The first phase was the dose escalation phase conducted according to a 3 + 3 design, with a minimum of three patients treated at each dose level. […] The dosing rationale was derived from a 4-weeks repeated oral-dose toxicology study in monkeys. […] If none of the initial three patients treated within a dose level experienced a dose-limiting toxicity (DLT) during Cycle 1, the dose was escalated to the next level. […] If none of the three additional patients experienced DLTs after all of them completed Cycle 1, the dose was escalated to the next level. If at least one of the additional three patients developed a DLT, then the dose escalation was stopped and at least six evaluable patients were enrolled at the previous dose level to establish the maximum tolerated dose (MTD). The maximum dose level was defined as Dose Level 9 (150 mg/day). Based on safety and PK results, the dosing schedule could be changed to a BID regimen.
AEs were evaluated and graded according to the National Cancer Institute Common Terminology Criteria for Adverse Events Version 4.03. DLTs were also evaluated and defined as hematologic toxicity (Grade 4 neutropenia lasting >7 days, Grade 4 thrombocytopenia or Grade 3 thrombocytopenia associated with bleeding and requiring blood transfusion, or febrile neutropenia) or non-hematologic toxicity (Grade ≥3 nausea/vomiting uncontrolled by aggressive antiemetic treatment, Grade ≥3 diarrhea lasting >48 h and unresponsive to treatment, Grade ≥3 aspartate aminotransferase/alanine aminotransferase lasting >7 days, corneal disorder worsening by ≥1 grade, or Grade ≥3 other non-hematological toxicity).

Compound: C=CC(=O)N[C@H]1CCc2c(-c3cnc4ccccc4c3)c3c(N)ncnc3n2C1 [TAS-121]
- Urticaria, ≥G3 (12 mg/day BID, N = 5): 0 n
- Venous thromboembolism, any grade (12 mg/day BID, N = 5): 0 n
- Venous thromboembolism, ≥G3 (12 mg/day BID, N = 5): 0 n
- Vomiting, ≥G3 (12 mg/day BID, N = 5): 0 n
- WBC decreased, any grade (12 mg/day BID, N = 5): 0 n
- WBC decreased, ≥G3 (12 mg/day BID, N = 5): 0 n
- ALT increased, ≥G3 (12 mg/day QD, N = 3): 0 n
- AST increased, ≥G3 (12 mg/day QD, N = 3): 0 n
- Decreased appetite, ≥G3 (12 mg/day QD, N = 3): 0 n
- Diarrhea, ≥G3 (12 mg/day QD, N = 3): 0 n
- Dry skin, ≥G3 (12 mg/day QD, N = 3): 0 n
- Embolic and thrombotic events, any grade (12 mg/day QD, N = 3): 2 n
- Hemoglobin decreased, any grade (12 mg/day QD, N = 3): 0 n
- Hemoglobin decreased, ≥G3 (12 mg/day QD, N = 3): 0 n
- Hypoalbuminemia, any grade (12 mg/day QD, N = 3): 0 n
- Hypoalbuminemia, ≥G3 (12 mg/day QD, N = 3): 0 n
- Interstitial lung disease, any grade (12 mg/day QD, N = 3): 0 n
- Interstitial lung disease, ≥G3 (12 mg/day QD, N = 3): 0 n
- Malaise, ≥G3 (12 mg/day QD, N = 3): 0 n
- Nausea, any grade (12 mg/day QD, N = 3): 2 n
- Nausea, ≥G3 (12 mg/day QD, N = 3): 0 n
- Other embolic and thrombotic events, any grade (12 mg/day QD, N = 3): 2 n
- Other embolic and thrombotic events, ≥G3 (12 mg/day QD, N = 3): 0 n
- Platelet count decreased, any grade (12 mg/day QD, N = 3): 2 n
- Pruritus, any grade (12 mg/day QD, N = 3): 0 n
- Pruritus, ≥G3 (12 mg/day QD, N = 3): 0 n
- Pyrexia, ≥G3 (12 mg/day QD, N = 3): 0 n
- Rash maculo-papular, any grade (12 mg/day QD, N = 3): 1 n
- Rash maculo-papular, ≥G3 (12 mg/day QD, N = 3): 0 n
- Rash, any grade (12 mg/day QD, N = 3): 0 n
- Rash, ≥G3 (12 mg/day QD, N = 3): 0 n
- Stomatitis, ≥G3 (12 mg/day QD, N = 3): 0 n
- Urticaria, any grade (12 mg/day QD, N = 3): 2 n
- Urticaria, ≥G3 (12 mg/day QD, N = 3): 1 n
- Vomiting, ≥G3 (12 mg/day QD, N = 3): 0 n
- WBC decreased, any grade (12 mg/day QD, N = 3): 0 n
- WBC decreased, ≥G3 (12 mg/day QD, N = 3): 0 n
- ALT increased, any grade (16 mg/day QD, N = 3): 0 n
- ALT increased, ≥G3 (16 mg/day QD, N = 3): 0 n
- AST increased, any grade (16 mg/day QD, N = 3): 0 n
- AST increased, ≥G3 (16 mg/day QD, N = 3): 0 n
- Decreased appetite, ≥G3 (16 mg/day QD, N = 3): 0 n
- Diarrhea, any grade (16 mg/day QD, N = 3): 2 n
- Diarrhea, ≥G3 (16 mg/day QD, N = 3): 1 n
- Dry skin, any grade (16 mg/day QD, N = 3): 0 n
- Dry skin, ≥G3 (16 mg/day QD, N = 3): 0 n
- Embolic and thrombotic events, any grade (16 mg/day QD, N = 3): 1 n
- Hemoglobin decreased, any grade (16 mg/day QD, N = 3): 1 n
- Hemoglobin decreased, ≥G3 (16 mg/day QD, N = 3): 0 n
- Hypoalbuminemia, any grade (16 mg/day QD, N = 3): 0 n
- Hypoalbuminemia, ≥G3 (16 mg/day QD, N = 3): 0 n
- Interstitial lung disease, ≥G3 (16 mg/day QD, N = 3): 1 n
- Malaise, any grade (16 mg/day QD, N = 3): 0 n
- Malaise, ≥G3 (16 mg/day QD, N = 3): 0 n
- Nausea, any grade (16 mg/day QD, N = 3): 1 n
- Nausea, ≥G3 (16 mg/day QD, N = 3): 0 n
- Other embolic and thrombotic events, any grade (16 mg/day QD, N = 3): 0 n
- Other embolic and thrombotic events, ≥G3 (16 mg/day QD, N = 3): 0 n
- Pruritus, ≥G3 (16 mg/day QD, N = 3): 0 n
- Pyrexia, ≥G3 (16 mg/day QD, N = 3): 0 n
- Rash maculo-papular, any grade (16 mg/day QD, N = 3): 1 n
- Rash maculo-papular, ≥G3 (16 mg/day QD, N = 3): 0 n
- Rash, any grade (16 mg/day QD, N = 3): 0 n
- Rash, ≥G3 (16 mg/day QD, N = 3): 0 n
- Stomatitis, ≥G3 (16 mg/day QD, N = 3): 0 n
- Urticaria, any grade (16 mg/day QD, N = 3): 1 n
- Urticaria, ≥G3 (16 mg/day QD, N = 3): 1 n
- Vomiting, ≥G3 (16 mg/day QD, N = 3): 0 n
- WBC decreased, any grade (16 mg/day QD, N = 3): 2 n
- WBC decreased, ≥G3 (16 mg/day QD, N = 3): 0 n
- DLT (BID 8 mg/day): Interstitial lung disease^a
- Number of patients who experienced a DLT (BID 8 mg/day, 6 DLT evaluable patients): 1
- DLT (BID 12 mg/day): Interstitial lung disease^a; also recorded: Platelet count decreased; also recorded: Left ventricular failure
- Number of patients who experienced a DLT (BID 12 mg/day, 5 DLT evaluable patients): 2
- patients who presented a DLT (BID regimen): three
- maximum tolerated dose (MTD) (BID regimen): 8 mg/day
- Number of patients who experienced a DLT (QD 4 mg/day, 3 DLT evaluable patients): 0
- Number of patients who experienced a DLT (QD 8 mg/day, 6 DLT evaluable patients): 0
- DLT (QD 10 mg/day): Drug-induced liver injury
- Number of patients who experienced a DLT (QD 10 mg/day, 6 DLT evaluable patients): 1
- DLT (QD 12 mg/day): Platelet count decreased; also recorded: Urticaria
- Number of patients who experienced a DLT (QD 12 mg/day, 3 DLT evaluable patients): 2
- DLT (QD 16 mg/day): Urticaria; also recorded: Interstitial lung disease^a
- Number of patients who experienced a DLT (QD 16 mg/day, 3 DLT evaluable patients): 2
- patients who presented a DLT (QD regimen): Five
- maximum tolerated dose (MTD) (QD regimen): 10 mg/day
- AST increased, ≥G3 (Total, N = 134): 0 n
- Decreased appetite, ≥G3 (Total, N = 134): 0 n
- Dry skin, ≥G3 (Total, N = 134): 0 n
- Hypoalbuminemia, ≥G3 (Total, N = 134): 0 n
- Malaise, ≥G3 (Total, N = 134): 0 n
- Nausea, ≥G3 (Total, N = 134): 0 n
- Pruritus, ≥G3 (Total, N = 134): 0 n
- Stomatitis, ≥G3 (Total, N = 134): 0 n
- WBC decreased, ≥G3 (Total, N = 134): 0 n
- treatment-related deaths (all patients, during the study): No treatment-related deaths
